Test results published in patent US10307413B2, “Tetrahydro- and dihydro-isoquinoline PRMT5 inhibitors and uses thereof” (Epizyme, Inc., priority 2013, dated 2019).

Assays:
[1] = tested on: symmetric di-methyl arginine in Z-138 cells; test: Z-138 Methylation Assay (In Cell Western for symmetric di-methyl arginine and DNA content); format: cell-based; settings: Homo sapiens, read-out: ICW EC50
Text: [formula] [formula] Where top and bottom are the normally allowed to float, but may be fixed at 100 or 0 respectively in a 3-parameter fit. The Hill Coefficient normally allowed to float but may also be fixed at 1 in a 3-parameter fit. Y is the % inhibition and X is the compound concentration.
RPMI/Glutamax medium, penicillin-streptomycin, heat inactivated fetal bovine serum, and D-PBS were purchased from Life Technologies, Grand Island, N.Y., USA. Odyssey blocking buffer, 800CW goat anti-rabbit IgG (H+L) antibody, and Licor Odyssey infrared scanner were purchased from Licor Biosciences, Lincoln, Nebr., USA. Symmetric di-methyl arginine antibody was purchased from EMD Millipore, Billerica, Mass., USA. 16% Paraformaldehyde was purchased from Electron Microscopy Sciences, Hatfield, Pa., USA.
Cell Treatment, in Cell Western (ICW) for Detection of Symmetric Di-Methyl Arginine and DNA Content.
Z-138 cells were seeded in assay medium at a concentration of 50,000 cells per mL to a 384-well cell culture plate with 50 μL per well. Compound (100 nL) from 384 well source plates was added directly to 384 well cell plate. Plates were incubated at 37° C., 5% CO2 for 96 hours. […] Plates were incubated at room temperature for 30 minutes then incubated at 37° C., 5% CO2 for 5 hours. After the incubation, 40 μL per well of 8% paraformaldehyde in PBS (16% paraformaldahyde was diluted to 8% in PBS) was added to each plate and incubated for 30 minutes. […] Next 30 μL per well of Odyssey blocking buffer were added to each plate and incubated 1 hour at room temperature. Blocking buffer was removed and 20 μL per well of primary antibody was added (symmetric di-methyl arginine diluted 1:100 in Odyssey buffer with 0.1% Tween 20 (v/v)) and plates were incubated overnight (16 hours) at 4° C. Plates were washed 5 times with 100 μL per well of wash buffer. Next 20 μL per well of secondary antibody was added (1:200 800CW goat anti-rabbit IgG (H+L) antibody, 1:1000 DRAQ5 (Biostatus limited) in Odyssey buffer with 0.1% Tween 20 (v/v)) and incubated for 1 hour at room temperature. The plates were washed 5 times with 100 μL per well wash buffer then 1 time with 100 μL per well of water. Plates were allowed to dry at room temperature then imaged on the Licor Odyssey machine which measures integrated intensity at 700 nm and 800 nm wavelengths. Both 700 and 800 channels were scanned.
First, the ratio for each well was determined by:
Each plate included fourteen control wells of DMSO only treatment (minimum inhibition) as well as fourteen control wells for maximum inhibition treated with 3 μM of a reference compound (Background wells). The average of the ratio values for each control type was calculated and used to determine the percent inhibition for each test well in the plate. Reference compound was serially diluted three-fold in DMSO for a total of nine test concentrations, beginning at 3 μM. Percent inhibition was determined and IC50 curves were generated using triplicate wells per concentration of compound. Percent Inhibition=100−

Z-138 cell line = test: Z-138 Proliferation Assay (Cell Titer Glo, 5 days); format: cell-based; settings: Homo sapiens, 120 h; Z-138 cells, 5 days; read-out: Proliferation EC50
Text: RPMI/Glutamax medium, penicillin-streptomycin, heat inactivated fetal bovine serum were purchased from Life Technologies, Grand Island, N.Y., USA. V-bottom polypropylene 384-well plates were purchased from Greiner Bio-One, Monroe, N.C., USA. Cell culture 384-well white opaque plates were purchased from Perkin Elmer, Waltham, Mass., USA. Cell-Titer Glo® was purchased from Promega Corporation, Madison, Wis., USA. SpectraMax M5 plate reader was purchased from Molecular Devices LLC, Sunnyvale, Calif., USA.
A compound source plate was prepared by performing triplicate nine-point 3-fold serial dilutions in DMSO, beginning at 10 mM (final top concentration of compound in the assay was 20 μM and the DMSO was 0.2%). A 100 nL aliquot from the compound stock plate was added to its respective well in the cell plate. […] After addition of compounds, assay plates were incubated for 5 days at 37° C., 5% CO2, relative humidity >90%.
Cell viability was measured by quantitation of ATP present in the cell cultures, adding […] of Cell Titer Glo® reagent to the cell plates. Luminescence was read in the SpectraMax M5 microplate reader. The concentration of compound inhibiting cell viability by 50% was determined using a 4-parametric fit of the normalized dose response curves.

| Compound | EC50 [1] [µM] | EC50 (Z-138 cell line) [µM] |
| --- | --- | --- |
| CN(C)C(=O)CNCc1cccc(C(=O)NCC(O)CN2CCc3ccccc3C2)c1 (centres unmarked) [Compound 118] | 0.101 to 1 | > 20 |
| O=C(NCC(O)CN1CCc2ccccc2C1)c1cccc(OC2CCNC2)c1 (centres unmarked) [Compound 119] | 0.101 to 1 | 1 to 10 |
| CC(=O)N1CCC(Nc2cccc(C(=O)NCC(O)CN3CCc4ccccc4C3)c2)C1 (centres unmarked) [Compound 121] | < 0.1 | 0.101 to 1 |
| CS(=O)(=O)N1CCC(Nc2cccc(C(=O)NCC(O)CN3CCc4ccccc4C3)c2)C1 (centres unmarked) [Compound 122] | < 0.1 | 0.101 to 1 |
| CC(=O)N1CCC(Nc2cccc(C(=O)NCC(O)CN3CCc4ccccc4C3)c2)CC1 (centres unmarked) [Compound 124] | < 0.1 | < 0.1 |
| CS(=O)(=O)N1CCC(Nc2cccc(C(=O)NCC(O)CN3CCc4ccccc4C3)c2)CC1 (centres unmarked) [Compound 125] | < 0.1 | 0.101 to 1 |
| O=C(NCC(O)CN1CCc2ccccc2C1)c1cccc(NC2CCN(CC(F)(F)F)CC2)c1 (centres unmarked) [Compound 126] | < 0.1 | 1 to 10 |
| O=C(NCC(O)CN1CCc2ccccc2C1)c1cccc(-n2cncn2)c1 (centres unmarked) [Compound 130] | 0.101 to 1 | 10 to 50 |
| CN1CCC(N(C)c2cccc(C(=O)NCC(O)CN3CCc4ccccc4C3)c2)CC1 (centres unmarked) [Compound 131] | 0.101 to 1 | 1 to 10 |
| CN1CCC(N(C)c2cccc(C(=O)NCC(O)CN3CCc4ccccc4C3)c2)C1 (centres unmarked) [Compound 132] | 0.101 to 1 | 1 to 10 |
| CC(C)N1CCC(Oc2cccc(C(=O)NCC(O)CN3CCc4ccccc4C3)c2)C1 (centres unmarked) [Compound 135] | < 0.1 | 10 to 50 |
| CC(=O)N1CCC(Oc2cccc(C(=O)NCC(O)CN3CCc4ccccc4C3)c2)C1 (centres unmarked) [Compound 136] | < 0.1 | 1 to 10 |
| O=C(NCC(O)CN1CCc2ccccc2C1)c1cccc(OC2CCN(CC(F)(F)F)C2)c1 (centres unmarked) [Compound 137] | < 0.1 | 1 to 10 |
| O=C(NCC(O)CN1CCc2ccccc2C1)c1ccn[nH]1 (centres unmarked) [Compound 148] | 1 to 10 | > 20 |
| Cn1ccc(C(=O)NCC(O)CN2CCc3ccccc3C2)n1 (centres unmarked) [Compound 149] | 1 to 10 | > 20 |
| CC1CC(Nc2cccc(C(=O)NC[C@@H](O)CN3CCc4ccccc4C3)c2)CC(C)O1 (some centres unmarked) [Compound 153] | < 0.1 | 0.101 to 1 |
| CS(=O)(=O)N1CCC(Oc2cccc(C(=O)NCC(O)CN3CCc4ccccc4C3)c2)C1 (centres unmarked) [Compound 162] | < 0.1 | 1 to 10 |
| O=C(NC[C@H](O)CN1CCc2ccccc2C1)c1cc(NC2COC2)ncn1 [Compound 166, (S)—N-(3-(3,4-dihydroisoquinolin-2(1H)-yl)-2-hydroxypropyl)-6-(oxetan-3-ylamino)pyrimidine-4-carboxamide] | < 0.1 | 0.101 to 1 |
| C[C@H]1CC(Nc2cccc(C(=O)NC[C@H](O)CN3CCc4ccccc4C3)c2)CCO1 (some centres unmarked) [Compound 167] | < 0.1 | 0.101 to 1 |
| C[C@@H]1CC(Nc2cccc(C(=O)NC[C@H](O)CN3CCc4ccccc4C3)c2)CCO1 (some centres unmarked) [Compound 168] | < 0.1 | 0.101 to 1 |
| O=C(NCC(O)CN1CCc2ccccc2C1)c1cc(NC2CCOCC2)n[nH]1 (centres unmarked) [Compound 169] | 0.101 to 1 | 1 to 10 |
| O=C(NCC(O)CN1CCc2ccccc2C1)c1ncc[nH]1 (centres unmarked) [Compound 170] | 0.101 to 1 | > 20 |
| Cn1ccnc1C(=O)NCC(O)CN1CCc2ccccc2C1 (centres unmarked) [Compound 171] | 0.101 to 1 | 1 to 10 |

Second part, led by results:

| EC50 [1] [µM] | Compound | EC50 (Z-138 cell line) [µM] |
| --- | --- | --- |
| 0.101 to 1 | CN1CCC(Nc2cccc(C(=O)NCC(O)CN3CCc4ccccc4C3)c2)CC1 (centres unmarked) [Compound 123] | 1 to 10 |
| < 0.1 | CC(=O)N1CCC(Nc2ccc(C(=O)NCC(O)CN3CCc4ccccc4C3)cc2)CC1 (centres unmarked) [Compound 127] | 1 to 10 |
| < 0.1 | O=C(NCC(O)CN1CCc2ccccc2C1)c1ccc(NC2CCN(CC(F)(F)F)CC2)cc1 (centres unmarked) [Compound 128] | 1 to 10 |
| < 0.1 | O=C(NCC(O)CN1CCc2ccccc2C1)c1ccc(NC2CCOC2)cc1 (centres unmarked) [Compound 129] | 1 to 10 |
| < 0.1 | O=C(NCC(O)CN1CCc2ccccc2C1)c1cccc(OCCN2CCOCC2)c1 (centres unmarked) [Compound 133] | 1 to 10 |
| 0.101 to 1 | O=C(NCC(O)CN1CCc2ccccc2C1)c1ccc(NC2CCNCC2)cc1 (centres unmarked) [Compound 138] | 10 to 50 |
| < 0.1 | CN1CCC(Nc2ccc(C(=O)NCC(O)CN3CCc4ccccc4C3)cc2)CC1 (centres unmarked) [Compound 139] | 1 to 10 |
| < 0.1 | CC(C)N1CCC(Nc2ccc(C(=O)NCC(O)CN3CCc4ccccc4C3)cc2)CC1 (centres unmarked) [Compound 140] | 1 to 10 |
| < 0.1 | CS(=O)(=O)N1CCC(Nc2ccc(C(=O)NCC(O)CN3CCc4ccccc4C3)cc2)CC1 (centres unmarked) [Compound 141] | 1 to 10 |
| < 0.1 | O=C(NCC(O)CN1CCc2ccccc2C1)c1ccc(CN2CCNCC2)cc1 (centres unmarked) [Compound 143] | 1 to 10 |
| < 0.1 | CN(c1ccc(C(=O)NCC(O)CN2CCc3ccccc3C2)cc1)C1CCOC1 (centres unmarked) [Compound 144] | 1 to 10 |
| < 0.1 | O=C(NCC(O)CN1CCc2ccccc2C1)c1ccc(CN2CCOCC2)cc1 (centres unmarked) [Compound 145] | 1 to 10 |
| < 0.1 | COCCCOc1ccc(C(=O)NCC(O)CN2CCc3ccccc3C2)cc1 (centres unmarked) [Compound 146] | 1 to 10 |
| 0.101 to 1 | NCCN1CCN(Cc2cccc(C(=O)NCC(O)CN3CCc4ccccc4C3)c2)CC1 (centres unmarked) [Compound 147] | 10 to 50 |
| 0.101 to 1 | Cn1nccc1C(=O)NCC(O)CN1CCc2ccccc2C1 (centres unmarked) [Compound 150] | > 20 |
| 0.101 to 1 | O=C(NCC(O)CN1CCc2ccccc2C1)c1cccc(CO)c1 (centres unmarked) [Compound 151] | > 20 |
| 0.101 to 1 | O=C(NCC(O)CN1CCc2ccccc2C1)c1cccc(C2CCOC2)c1 (centres unmarked) [Compound 154] | 1 to 10 |
| 1 to 10 | COc1ccc2cc(C(=O)NCC(O)CN3CCc4ccccc4C3)ccc2n1 (centres unmarked) [Compound 155] | > 20 |
| 0.101 to 1 | CC(=O)NCCN1CCN(Cc2cccc(C(=O)NCC(O)CN3CCc4ccccc4C3)c2)CC1 (centres unmarked) [Compound 156] | 1 to 10 |
| 1 to 10 | O=C(O)CN1CCN(Cc2cccc(C(=O)NCC(O)CN3CCc4ccccc4C3)c2)CC1 (centres unmarked) [Compound 157] | > 20 |
| 0.101 to 1 | NC(=O)CCCN1CCN(Cc2cccc(C(=O)NCC(O)CN3CCc4ccccc4C3)c2)CC1 (centres unmarked) [Compound 159] | 1 to 10 |
| 0.101 to 1 | COc1cc(CN2CCN(C)CC2)cc(C(=O)NCC(O)CN2CCc3ccccc3C2)c1 (centres unmarked) [Compound 160] | 10 to 50 |
| < 0.1 | CC(c1cccc(C(=O)NCC(O)CN2CCc3ccccc3C2)c1)N1CCN(C)CC1 (centres unmarked) [Compound 161] | 1 to 10 |
| < 0.1 | CN1CCN(Cc2ccc(C(=O)NCC(O)CN3CCc4ccccc4C3)cc2)CC1 (centres unmarked) [Compound 163] | 1 to 10 |
| < 0.1 | O=C(NCC(O)CN1CCc2ccccc2C1)c1cccc(N2CCS(=O)(=O)CC2)c1 (centres unmarked) [Compound 164] | 1 to 10 |
| 0.101 to 1 | CCOC(=O)CN1CCN(Cc2cccc(C(=O)NCC(O)CN3CCc4ccccc4C3)c2)CC1 (centres unmarked) [Compound 165] | 1 to 10 |
